Data as given in ChEMBL document CHEMBL4602694, “Suppression of Drug-Resistant Non-Small-Cell Lung Cancer with Inhibitors Targeting Minichromosomal Maintenance Protein” (J Med Chem, 2020).

Legend:
NCI-H1975 [1] = assay: Antiproliferative activity against human NCI-H1975 cells assessed as reduction in cell viability incubated for 72 hrs by SRB assay; format: functional, cell-based; conditions: NCI-H1975, 72 h
NCI-H1975 [2] = assay: Antitumor activity against human NCI-H1975 cells xenografted in athymic nude BALB/c mouse assessed as tumor size at 1 mg/kg, ip administered for 4 weeks (reference value: 546.2 +/- 95.2 cu.mm); format: functional
NCI-H1975 [3] = assay: Antitumor activity against human NCI-H1975 cells xenografted in athymic nude BALB/c mouse assessed as tumor size at 4 mg/kg, ip administered for 4 weeks (reference value: 546.2 +/- 95.2 cu.mm); format: functional
Hs68 = assay: Cytotoxicity against human HS68 cells assessed as reduction in cell viability incubated for 72 hrs by SRB assay; format: cell-based; conditions: Hs68, 72 h
NCI-H1975 [4] = assay: Potency index, ratio of IC50 of AS4583 to IC50 of compound for Antiproliferative activity against human NCI-H1975 cells assessed as reduction in cell viability incubated for 72 hrs by SRB assay; format: functional

In the case of `Cc1oc2ccccc2c1C(=O)NCCCn1ccnc1`, the IC50 (NCI-H1975 [1]) is reported as > 10000 nM.
`Cc1oc2c(c1C(=O)NCCCn1ccnc1)C(=O)c1ccc(F)cc1C2=O` gave an Activity (NCI-H1975 [2]) of 128.2 mm3, an Activity (NCI-H1975 [3]) of 109.5 mm3 and an IC50 (NCI-H1975 [1]) of 17 nM.
`O=C1c2ccccc2C(=O)c2c1oc(-c1ccccc1)c2C(=O)NCCCn1ccnc1` gave an IC50 (NCI-H1975 [1]) of 826 nM.
Molecule `Cc1oc2c(c1C(=O)NCCCN1CCCC1)C(=O)c1ccccc1C2=O` has an IC50 (Hs68) of 77 nM and an IC50 (NCI-H1975 [1]) of 24 nM.
With `Cc1[nH]c2c(c1C(=O)NCCCn1ccnc1)C(=O)c1ccccc1C2=O` the “Ratio IC50” value (NCI-H1975 [4]) was 100 and the IC50 (NCI-H1975 [1]) was 8730 nM.
`Cc1oc2c(c1C(=O)NCCCN1CCOCC1)C(=O)c1ccccc1C2=O` was tested, and the IC50 (NCI-H1975 [1]) was 80 nM.
For `CCc1oc2c(c1C(=O)NCCCn1ccnc1)C(=O)c1ccccc1C2=O`, the IC50 (NCI-H1975 [1]) was 288 nM.
For `Cc1oc2c(c1C(=O)NCCCCn1ccnc1)C(=O)c1ccccc1C2=O`, the IC50 (NCI-H1975 [1]) was 250 nM.
For `Cc1oc2c(c1C(=O)NCCCCc1ccccc1)C(=O)c1ccccc1C2=O`, the IC50 (NCI-H1975 [1]) was > 10000 nM.
Work on `Cc1oc2c(c1C(=O)NCCCn1cccc1)C(=O)c1ccccc1C2=O` yielded an IC50 (NCI-H1975 [1]) of 918 nM.
For `Cc1oc2c(c1C(=O)NCCn1ccnc1)C(=O)c1ccccc1C2=O`, the IC50 (NCI-H1975 [1]) was 280 nM.
Work on `CC(C)c1oc2c(c1C(=O)NCCCn1ccnc1)C(=O)c1ccccc1C2=O` yielded an IC50 (NCI-H1975 [1]) of 260 nM.
